We go through 20 compounds from ChEMBL document CHEMBL1154164, “Design, synthesis, biological evaluation, and NMR studies of a new series of arylsulfones as selective and potent matrix metalloproteinase-12 inhibitors” (J Med Chem, 2009).

Assay [1] deals with Matrix metalloproteinase-16 (Homo sapiens, UniProt P51512). Put plainly: Inhibition of human recombinant pro-MMP16 catalytic domain after 4 hrs by fluorimetry.
Assay [2] concerns the target T1, Macrophage metalloelastase (Homo sapiens, UniProt P39900). Put plainly: Inhibition of autoactivated human pro-MMP12 after 4 hrs by fluorimetry.
Assay [3] has as its target Matrix metalloproteinase-9 (Homo sapiens, UniProt P14780). Put plainly: Inhibition of para-aminophenylmercuric acetate-activated human recombinant pro-MMP9 catalytic domain after 4 hrs by fluorimetry.
Assay [4] addresses Neutrophil collagenase (Homo sapiens, UniProt P22894). Nature of the assay: Inhibition of para-aminophenylmercuric acetate-activated human pro-MMP8 after 4 hrs by fluorimetry.
In assay [5] the target is Collagenase 3 (Homo sapiens, UniProt P45452). Nature of the assay: Inhibition of para-aminophenylmercuric acetate-activated human pro-MMP13 after 4 hrs by fluorimetry.
Assay [6] concerns the target T2, Interstitial collagenase (Homo sapiens, UniProt P03956).
T2 sequence (P03956 whole entry): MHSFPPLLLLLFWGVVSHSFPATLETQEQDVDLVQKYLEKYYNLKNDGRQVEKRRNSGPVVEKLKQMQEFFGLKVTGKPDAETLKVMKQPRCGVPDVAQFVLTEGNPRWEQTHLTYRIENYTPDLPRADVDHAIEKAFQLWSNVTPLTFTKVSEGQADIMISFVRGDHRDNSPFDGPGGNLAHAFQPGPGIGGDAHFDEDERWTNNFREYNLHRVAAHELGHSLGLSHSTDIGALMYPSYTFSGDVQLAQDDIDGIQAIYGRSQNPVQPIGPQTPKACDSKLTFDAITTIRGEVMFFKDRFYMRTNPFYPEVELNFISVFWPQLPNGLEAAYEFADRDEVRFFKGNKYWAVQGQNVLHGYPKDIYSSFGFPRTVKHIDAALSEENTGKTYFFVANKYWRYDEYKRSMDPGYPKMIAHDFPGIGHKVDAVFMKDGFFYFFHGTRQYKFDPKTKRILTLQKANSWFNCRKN
Put plainly: Inhibition of para-aminophenylmercuric acetate-activated human pro-MMP1 after 4 hrs by fluorimetry.

Assay [7] addresses 72 kDa type IV collagenase (Homo sapiens, UniProt P08253). Put plainly: Inhibition of para-aminophenylmercuric acetate-activated human recombinant pro-MMP2 catalytic domain after 4 hrs by fluorimetry.
The target in assay [8] is Stromelysin-1 (Homo sapiens, UniProt P08254). Put plainly: Inhibition of trypsin activated human pro-MMP3 after 4 hrs by fluorimetry.
Chain of Stromelysin-1 (P08254 whole entry, the tested form may be a part): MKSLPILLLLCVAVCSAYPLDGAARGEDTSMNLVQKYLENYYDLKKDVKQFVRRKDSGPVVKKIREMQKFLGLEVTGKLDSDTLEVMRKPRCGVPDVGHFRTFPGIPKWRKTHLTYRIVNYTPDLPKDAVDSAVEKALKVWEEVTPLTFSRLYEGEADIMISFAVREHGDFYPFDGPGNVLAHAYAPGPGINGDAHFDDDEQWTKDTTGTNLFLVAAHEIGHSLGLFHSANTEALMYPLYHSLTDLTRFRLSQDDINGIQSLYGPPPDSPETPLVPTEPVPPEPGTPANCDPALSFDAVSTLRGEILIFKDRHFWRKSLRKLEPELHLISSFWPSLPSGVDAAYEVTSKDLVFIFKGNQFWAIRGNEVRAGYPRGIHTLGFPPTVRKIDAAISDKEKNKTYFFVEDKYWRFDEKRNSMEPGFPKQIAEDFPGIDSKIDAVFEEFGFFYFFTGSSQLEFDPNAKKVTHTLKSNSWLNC
Assay [9] concerns the target Matrix metalloproteinase-14 (Homo sapiens, UniProt P50281). Put plainly: Inhibition of human recombinant pro-MMP14 catalytic domain after 4 hrs by fluorimetry.
Assay [10] addresses T1, Macrophage metalloelastase. Put plainly: Inhibition of autoactivated human pro-MMP12 after 30 mins preincubation by fluorimetry.
Assay [11] concerns the target T1, Macrophage metalloelastase. Put plainly: Inhibition of autoactivated human pro-MMP12 after 1 hr preincubation by fluorimetry.

pIC50: −log10 of the molar value.

Chain of Matrix metalloproteinase-16 (P51512 whole entry, the tested form may be a part): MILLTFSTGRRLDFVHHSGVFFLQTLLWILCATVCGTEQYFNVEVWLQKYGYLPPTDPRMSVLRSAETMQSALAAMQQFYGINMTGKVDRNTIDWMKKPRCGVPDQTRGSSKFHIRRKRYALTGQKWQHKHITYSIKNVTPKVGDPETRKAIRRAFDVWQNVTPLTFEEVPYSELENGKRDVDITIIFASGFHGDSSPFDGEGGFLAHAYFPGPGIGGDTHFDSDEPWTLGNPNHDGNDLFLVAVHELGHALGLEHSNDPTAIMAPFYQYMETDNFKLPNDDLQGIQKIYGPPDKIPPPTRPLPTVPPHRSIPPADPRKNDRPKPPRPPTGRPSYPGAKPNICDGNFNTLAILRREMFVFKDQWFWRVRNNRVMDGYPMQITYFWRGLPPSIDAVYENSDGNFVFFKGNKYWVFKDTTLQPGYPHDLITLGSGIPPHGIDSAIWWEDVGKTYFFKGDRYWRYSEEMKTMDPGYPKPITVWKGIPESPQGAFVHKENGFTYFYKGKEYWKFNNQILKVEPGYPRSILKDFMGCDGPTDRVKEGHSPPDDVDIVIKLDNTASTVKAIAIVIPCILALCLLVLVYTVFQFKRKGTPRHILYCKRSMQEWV
T1 sequence (P39900 whole entry, the tested form may be a part): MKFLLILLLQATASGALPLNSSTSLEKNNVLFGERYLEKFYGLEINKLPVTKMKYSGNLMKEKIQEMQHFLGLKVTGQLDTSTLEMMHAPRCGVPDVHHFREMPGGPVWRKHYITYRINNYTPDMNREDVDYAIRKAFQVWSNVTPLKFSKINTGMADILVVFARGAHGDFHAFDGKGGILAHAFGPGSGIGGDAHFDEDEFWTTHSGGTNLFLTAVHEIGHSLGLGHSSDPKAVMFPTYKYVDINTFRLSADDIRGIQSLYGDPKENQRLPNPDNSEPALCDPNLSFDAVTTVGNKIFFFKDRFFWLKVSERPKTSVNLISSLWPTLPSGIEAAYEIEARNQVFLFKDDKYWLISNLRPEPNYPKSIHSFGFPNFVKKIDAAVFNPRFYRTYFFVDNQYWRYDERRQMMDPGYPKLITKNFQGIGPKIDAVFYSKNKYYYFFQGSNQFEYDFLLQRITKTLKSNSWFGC
Chain of Matrix metalloproteinase-9 (P14780 whole entry, the tested form may be a part): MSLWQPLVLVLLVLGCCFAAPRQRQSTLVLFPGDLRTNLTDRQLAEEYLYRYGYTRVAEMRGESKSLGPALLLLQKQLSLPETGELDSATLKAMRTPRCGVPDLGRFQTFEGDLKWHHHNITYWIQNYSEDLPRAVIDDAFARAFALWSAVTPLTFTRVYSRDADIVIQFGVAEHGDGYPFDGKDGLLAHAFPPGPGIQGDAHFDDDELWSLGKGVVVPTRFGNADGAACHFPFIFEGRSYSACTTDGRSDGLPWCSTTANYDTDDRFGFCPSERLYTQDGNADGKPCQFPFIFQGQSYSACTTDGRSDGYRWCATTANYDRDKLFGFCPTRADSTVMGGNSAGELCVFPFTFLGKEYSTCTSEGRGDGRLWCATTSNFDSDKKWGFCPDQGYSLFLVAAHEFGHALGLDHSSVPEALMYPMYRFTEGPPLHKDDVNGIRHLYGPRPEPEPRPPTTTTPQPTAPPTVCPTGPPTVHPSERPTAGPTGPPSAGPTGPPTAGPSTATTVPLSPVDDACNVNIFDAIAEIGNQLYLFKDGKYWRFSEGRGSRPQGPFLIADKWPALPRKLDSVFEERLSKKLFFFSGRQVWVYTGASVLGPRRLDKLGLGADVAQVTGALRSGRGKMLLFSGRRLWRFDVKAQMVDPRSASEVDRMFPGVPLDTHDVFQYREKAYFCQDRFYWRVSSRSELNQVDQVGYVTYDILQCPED
Chain of 72 kDa type IV collagenase (P08253 whole entry, the tested form may be a part): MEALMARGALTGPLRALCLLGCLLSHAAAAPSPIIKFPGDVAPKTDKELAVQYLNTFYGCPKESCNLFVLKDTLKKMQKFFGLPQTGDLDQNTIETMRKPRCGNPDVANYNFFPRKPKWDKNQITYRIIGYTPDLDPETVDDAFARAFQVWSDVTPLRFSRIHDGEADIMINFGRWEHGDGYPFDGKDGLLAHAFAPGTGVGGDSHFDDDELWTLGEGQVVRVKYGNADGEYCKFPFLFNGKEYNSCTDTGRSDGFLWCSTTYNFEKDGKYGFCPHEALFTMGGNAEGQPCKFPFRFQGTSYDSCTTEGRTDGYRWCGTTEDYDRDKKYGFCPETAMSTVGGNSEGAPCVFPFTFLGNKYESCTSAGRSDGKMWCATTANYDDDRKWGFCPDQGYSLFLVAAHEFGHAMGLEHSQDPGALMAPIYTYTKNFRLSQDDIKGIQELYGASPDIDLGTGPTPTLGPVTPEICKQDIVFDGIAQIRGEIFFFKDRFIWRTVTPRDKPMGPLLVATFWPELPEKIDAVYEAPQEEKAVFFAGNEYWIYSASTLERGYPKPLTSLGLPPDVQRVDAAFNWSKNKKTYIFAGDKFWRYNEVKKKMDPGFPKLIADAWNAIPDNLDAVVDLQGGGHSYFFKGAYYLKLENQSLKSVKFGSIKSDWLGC
Chain of Neutrophil collagenase (P22894 whole entry): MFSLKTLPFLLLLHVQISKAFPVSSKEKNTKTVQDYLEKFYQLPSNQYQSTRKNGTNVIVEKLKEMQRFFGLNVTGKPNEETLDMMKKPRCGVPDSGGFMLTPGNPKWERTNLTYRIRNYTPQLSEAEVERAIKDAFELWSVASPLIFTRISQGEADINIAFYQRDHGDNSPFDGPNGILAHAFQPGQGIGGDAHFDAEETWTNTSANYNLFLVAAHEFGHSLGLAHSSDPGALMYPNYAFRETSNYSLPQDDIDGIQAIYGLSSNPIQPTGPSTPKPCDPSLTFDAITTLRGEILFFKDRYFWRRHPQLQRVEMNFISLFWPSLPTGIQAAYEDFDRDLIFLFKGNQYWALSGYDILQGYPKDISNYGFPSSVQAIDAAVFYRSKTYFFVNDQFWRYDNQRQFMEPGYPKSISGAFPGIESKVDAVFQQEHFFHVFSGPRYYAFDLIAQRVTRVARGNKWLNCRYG

On to `CC(C)ON([C@@H](C(=O)O)C(C)C)S(=O)(=O)c1ccc(-c2ccccc2)cc1`, for which the pIC50 (as a rule, −log10 of the IC50, conventionally taken in molar units) is 4.74 in [1]; 6.39 in assay [2]; 4.62 in assay [3]; 5.70 in assay [4]; 5.10 in assay [5]; less than 4.00 in assay [6]. Besides, the pIC50 is 5.82 in [7], 4.27 in assay [8] and 5.00 in assay [9].
As to `O=C(NO)c1ccccc1S(=O)(=O)c1ccc(Oc2ccccc2)cc1`, the pIC50 in assay [1] is 5.89; in assay [2] it was 5.92; in assay [3], 6.16; in [4], 6.21; in [5] it was 5.57; in assay [6] it was less than 5.00. For the same compound, the pIC50 in assay [7] was 5.92; in assay [8], 4.57; in [9], 5.89.
In the case of `COc1ccc(-c2ccc(S(=O)(=O)c3ccccc3C(=O)NO)cc2)cc1`, the pIC50 in assay [1] is 5.92; in assay [2], 7.15; in assay [3] it was 6.03; in assay [4], 7.06; in [5], 6.59; in assay [6], 4.55. Besides, the figures for the pIC50 in assay [7], in assay [8] and in assay [9] were 7.00, 5.40 and 5.89, respectively.
Turning to `COc1ccc(S(=O)(=O)c2ccccc2CC(=O)NO)cc1`, the pIC50 in assay [1] is 6.89; in [2], 7.49; in assay [3], 7.01; in assay [4], 6.55; in [5], 7.08; in [6], 5.39. The pIC50 is 6.64 in assay [7], 6.14 in assay [8] and 6.70 in assay [9].
As for `C[S+]([O-])c1ccc(Oc2ccc(S(=O)(=O)c3ccccc3C(=O)NO)cc2)cc1` (stereo not given), the pIC50 in assay [1] is 3.96; in assay [2], 5.24; in [3], 4.29; in [4], 5.04; in assay [5], 4.70; in assay [6], less than 3.70. In addition, the pIC50 in assay [7] is 5.00; in assay [8] it was 4.22; in [9], 3.92.
Take `COc1ccc(S(=O)(=O)c2ccccc2C(=O)NO)cc1`: the pIC50 in [1] is 4.51; in assay [2], 4.85; in assay [3] it was 4.62; in [4] it was 4.14; in assay [5], 4.55; in assay [6], less than 4.00. Besides, the pIC50 in assay [7] was 4.46; in assay [8], less than 4.30; in assay [9], 4.60.
For `COc1ccc(-c2ccc(S(=O)(=O)c3ccccc3CC(=O)O)cc2)cc1`, the pIC50 in assay [1] is 6.14; in assay [2] it was 6.85; in [3] it was 6.14; in assay [4] it was 7.00; in assay [5], 7.11; in assay [6], 5.36. The pIC50 in [7] is 7.33; in [10] it was 6.77; in assay [8] it was 5.12; in assay [9], 6.13; in assay [11] it was 6.82.
On to `COc1ccc(Oc2ccc(S(=O)(=O)c3ccccc3CC(=O)NO)cc2)cc1`, for which the pIC50 in [1] was 7.49; in assay [2], 9.70; in assay [3], 9.10; in assay [4], 8.29; in assay [5], 8.39; in assay [6] it was 5.46. The pIC50 in assay [7] was 8.46; in assay [10], 9.05; in assay [8] it was 7.68; in [9] it was 7.48; in [11], 9.07.
As to `CC(C(=O)O)c1ccccc1S(=O)(=O)c1ccc(-c2ccccc2)cc1` (racemic), the pIC50 was 5.20 in assay [1]; 5.72 in assay [2]; 4.70 in [3]; 5.72 in assay [4]; 5.74 in [5]; 4.29 in assay [6]. For the same compound, the pIC50 in [7] was 5.62; in assay [8], less than 4.00; in [9], 4.74.
As to `O=C(NO)c1ccccc1S(=O)(=O)c1ccc(-c2ccccc2)cc1`, the pIC50 in assay [1] is 5.29; in assay [2], 6.23; in assay [3] it was 5.11; in assay [4], 6.00; in assay [5], 5.85; in assay [6] it was 4.14. Further, the pIC50 in [7] was 5.89; in assay [8] it was 4.35; in assay [9], 5.08.
For the compound `CC(C)ON([C@@H](C(=O)NO)C(C)C)S(=O)(=O)c1ccc(-c2ccccc2)cc1`, the pIC50 is 7.29 in [1]; 9.70 in assay [2]; 8.39 in assay [5]; 6.31 in [6]; 9.10 in assay [7].
Take `O=C(Cc1ccccc1S(=O)(=O)c1ccc(-c2ccccc2)cc1)NO`: the pIC50 in [1] is 6.66; in assay [2] it was 8.22; in [3], 6.51; in assay [4], 6.43; in assay [5], 7.21; in [6], 4.54. In addition, the pIC50 in assay [7] is 7.42; in [8], 4.64; in [9], 6.03.
Turning to `COc1ccc(Oc2ccc(S(=O)(=O)c3ccccc3C(=O)NO)cc2)cc1`, the pIC50 is 5.22 in assay [1]; 6.04 in [2]; 6.39 in assay [3]; 5.72 in [4]; 5.57 in assay [5]; less than 5.00 in assay [6]. Moreover, the pIC50 in [7] was 5.89; in assay [8] it was 4.66; in assay [9], 5.40.
For `COc1ccc(-c2ccc(S(=O)(=O)c3ccccc3C(C)C(=O)O)cc2)cc1` (racemic), the pIC50 in assay [1] was 5.96; in assay [2] it was 6.51; in assay [3], 5.52; in assay [4] it was 6.54; in [5] it was 6.72; in assay [6], less than 5.00. Besides, the values for the pIC50 in [7], in assay [8] and in assay [9] were 6.72, 5.10 and 5.68, respectively.
On to `CC(C(=O)NO)c1ccccc1S(=O)(=O)c1ccc(-c2ccccc2)cc1` (racemic), for which the pIC50 is 6.33 in assay [1]; 8.22 in [2]; 6.47 in assay [3]; 6.41 in [4]; 7.13 in assay [5]; 4.92 in assay [6]. Also, the pIC50 in assay [7] is 7.14; in assay [8], 5.25; in assay [9], 6.07.
Consider `COc1ccc(-c2ccc(S(=O)(=O)c3ccccc3C(C)C(=O)NO)cc2)cc1` (racemic), for which the pIC50 in assay [1] is 6.82; in [2] it was 8.57; in assay [3], 7.16; in assay [4], 7.27; in [5], 7.92; in assay [6], less than 5.00. Besides, the pIC50 was 8.15 in assay [7], 5.85 in assay [8] and 6.44 in assay [9].
Take `O=C(O)Cc1ccccc1S(=O)(=O)c1ccc(-c2ccccc2)cc1`: the pIC50 in assay [1] is 5.37; in assay [2], 5.82; in [3], 5.14; in assay [4], 6.54; in assay [5], 6.59; in [6], 4.64. Moreover, the pIC50 was 6.29 in assay [7], 4.13 in [8] and 5.27 in [9].
As to `COc1ccc(Oc2ccc(S(=O)(=O)c3ccccc3CC(=O)O)cc2)cc1`, the negative logarithm of the IC50 (pIC50) in assay [1] is 5.19; in assay [2], 6.42; in [3] it was 6.38; in assay [4], 5.92; in [5], 6.03; in assay [6] it was less than 5.00. In addition, the pIC50 was 6.15 in assay [7], less than 5.00 in [8] and 5.09 in [9].
In the case of `COc1ccc(-c2ccc(S(=O)(=O)c3ccccc3CC(=O)NO)cc2)cc1`, the pIC50 is 6.89 in [1]; 8.32 in [2]; 7.03 in assay [3]; 6.92 in [4]; 7.60 in assay [5]; 5.08 in [6]. Moreover, the pIC50 was 8.01 in assay [7], 5.80 in assay [8] and 6.15 in [9].
For `COc1ccc(S(=O)(=O)c2ccccc2CC(=O)O)cc1`, the pIC50 in assay [1] is 4.03; in [2], 4.05; in assay [3], less than 4.00; in assay [4] it was 4.13; in [5], 4.26; in [6], less than 4.00. Also, the pIC50 in assay [7] was 4.24; in assay [8] it was less than 4.00; in assay [9], 4.11.
